From the OligoGym collection
After the bases stand the sugars from the 5' end (letter, count) and the backbone: PS all phosphorothioate, else s phosphorothioate and o phosphodiester by linkage. Methylation of C is not given here. l = locked nucleic acid (LNA); d = 2'-deoxy (DNA)

Target: SNHG14
Details: ASO
[1] = Mouse Primary Neuronal Cell, 0.005 µM

Sequence	target mRNA inhibition (Human Neuronal Cell, 0.2 µM) [%]	target mRNA inhibition (Human Neuronal Cell, 1 µM) [%]	target mRNA inhibition (Human Neuronal Cell, 7.5 µM) [%]	other results
GCTCCATATTTAAATCC (sugars l4 d11 l2, PS)	20	45	–	–
GCTTCATATTTCTCCA (sugars l2 d12 l2, PS)	57	–	–	–
GCTTCTACTTAAATAT (sugars l3 d10 l3, PS)	27	21	–	–
GCTTTTAACCAGAGTG (sugars l4 d10 l2, PS)	–	–	72	–
GCTTTTAACCAGAGTGGC (sugars l1 d14 l3, PS)	–	–	63	–
GTCATCTAACTTCTTAC (sugars l3 d11 l3, PS)	45	46	–	–
GTTACCTACATCTCAT (sugars l2 d12 l2, PS)	-6	20	–	target mRNA inhibition (Human Neuronal Cell, 5 µM): 31%; target mRNA inhibition [1]: 84.2%
GTTACCTACATCTCAT (sugars l3 d10 l3, PS)	3	32	–	target mRNA inhibition (Human Neuronal Cell, 5 µM): 18%; target mRNA inhibition [1]: 93.4%
GTTACCTACATCTCATA (sugars l2 d11 l4, PS)	-4	10	–	target mRNA inhibition (Human Neuronal Cell, 5 µM): 21%; target mRNA inhibition [1]: 92%
GTTCTACTATACTTTCCT (sugars l1 d15 l2, PS)	–	–	-8	–
GTTCTACTATACTTTCCTC (sugars l1 d14 l1 d1 l2, PS)	–	–	54	–
GTTTATACCCTTTCCAA (sugars l3 d11 l3, PS)	57	63	–	–
GTTTATACCCTTTCCAAT (sugars l1 d12 l2 d1 l2, PS)	–	–	54	–
GTTTATACCCTTTCCAAT (sugars l2 d11 l1 d2 l2, PS)	–	–	67	–
GTTTCCATCTACTATTAA (sugars l1 d11 l2 d1 l3, PS)	–	–	52	–
GTTTCCATCTACTATTAAT (sugars ldddlddddddddlddlll, PS)	–	–	58	–
GTTTCCATCTACTATTAAT (sugars ldddldddddddldldlll, PS)	–	–	63	–
GTTTCCATCTACTATTAAT (sugars llddlddddddddddldll, PS)	–	–	59	–
TAAAATTATTTATACACCA (sugars ldlldldddddddllllll, PS)	–	–	39	–
TAAAATTATTTATACACCAT (sugars l2 d1 l2 d11 l4, PS)	–	–	49	–
TAAAATTATTTATACACCAT (sugars lddlddlddddddlldllll, PS)	–	–	2	–
TACACTTAATTATACTTCCA (sugars l1 d4 l1 d11 l3, PS)	–	–	53	–

Sequence	target mRNA inhibition (Human Neuronal Cell, 0.2 µM) [%]	target mRNA inhibition (Human Neuronal Cell, 1 µM) [%]	target mRNA inhibition (Human Neuronal Cell, 7.5 µM) [%]	other results
TACACTTAATTATACTTCCA (sugars lddlddlddddddlddddll, PS)	–	–	61	–
TACATCTCATACTTGC (sugars l4 d10 l2, PS)	–	–	–	target mRNA inhibition [1]: 97%
TACCAATAGTTACCTT (sugars l2 d10 l4, PS)	30	49	–	–
TACCTACATCTCATACTT (sugars l2 d14 l2, PS)	-10	11	–	target mRNA inhibition (Human Neuronal Cell, 5 µM): 6%
TACTAAACATACACATA (sugars l4 d11 l2, PS)	9	25	–	–
TACTATACTTTCCTCT (sugars l2 d10 l4, PS)	59	60	–	–
TACTCTGCAATACACC (sugars l1 d3 l1 d9 l2, PS)	–	–	52	–
TACTCTGCAATACACCA (sugars l1 d2 l2 d10 l2, PS)	–	–	56	–
TACTCTGCAATACACCA (sugars l1 d13 l3, PS)	–	–	60	–
TATACCTTTCTTTAACCCTT (sugars l2 d4 l1 d11 l2, PS)	–	–	51	–
TATACCTTTCTTTAACCCTT (sugars llddldldddddddddddll, PS)	–	–	60	–
TATCTTTCCATTTATTTCCA (sugars l1 d17 l2, PS)	–	–	-7	–
TATTCTTACCGTCTTT (sugars l2 d10 l4, PS)	60	68	–	–
TATTGATTCAATTCCC (sugars l3 d10 l3, PS)	62	68	–	–
TATTGATTCAATTCCCT (sugars ldddlddddddllldll, PS)	–	–	10	–
TATTGATTCAATTCCCT (sugars lddldddddddddldll, PS)	–	–	51	–
TATTGATTCAATTCCCT (sugars ldldlddddddddldll, PS)	–	–	60	–
TATTTATACACCATCAT (sugars l3 d11 l3, PS)	59	63	–	–
TCACTGCCATCAATAC (sugars l4 d10 l2, PS)	42	45	–	–
TCAGCTTTTAACCAGAGT (sugars l2 d13 l3, PS)	–	–	79	–
TCAGCTTTTAACCAGAGTG (sugars l2 d14 l3, PS)	–	–	76	–
TCAGCTTTTAACCAGAGTGG (sugars l2 d16 l2, PS)	–	–	70	–
